Test results: patent US20220211630A1, “SOLID NANOPARTICLE FORMULATION OF WATER INSOLUBLE PHARMACEUTICAL SUBSTANCES WITH REDUCED OSTWALD RIPENING AND IMMEDIATE DRUG RELEASE FOLLOWING INTRAVENOUS ADMINISTRATION” (priority 2019, published 2022)
≈ marks a conversion by molar mass, not a printed value. Like-named read-outs stand apart in the source and are kept apart here.

Key:
[1] = Drug solubility in supernatant of reconstituted suspension after ultracentrifugation (HPLC); assay type: physicochemical; details: room temperature
Protocol: The quantities of docetaxel, rapamycin and 17-AAG and human albumin in the supernatant were measured by high performance liquid chromatography (HPLC) and the results are summarized in Table 9.
The quantities of ixabepilone and rapamycin in the supernatant were measured by high performance liquid chromatography (HPLC) and the results are summarized in Table 18.

[2] = cited from earlier work
human CB2 receptors = human CB2 receptors (Homo sapiens, UniProt P34972); details: read-out: Affinity; cited from earlier work
human CB2 receptors, sequence (P34972 whole entry): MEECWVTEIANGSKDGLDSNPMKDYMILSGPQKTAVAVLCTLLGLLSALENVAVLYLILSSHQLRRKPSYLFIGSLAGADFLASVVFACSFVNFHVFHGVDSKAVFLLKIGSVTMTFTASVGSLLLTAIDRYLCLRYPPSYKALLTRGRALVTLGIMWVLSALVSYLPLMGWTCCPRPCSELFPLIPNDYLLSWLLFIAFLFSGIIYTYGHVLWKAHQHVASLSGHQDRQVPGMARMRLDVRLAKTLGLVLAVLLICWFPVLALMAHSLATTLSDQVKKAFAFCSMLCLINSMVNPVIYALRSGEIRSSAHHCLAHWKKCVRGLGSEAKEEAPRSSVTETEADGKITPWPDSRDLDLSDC

human CB1 receptors = human CB1 receptors (Homo sapiens, UniProt P21554); details: read-out: Affinity; cited from earlier work
human CB1 receptors, sequence (P21554 whole entry): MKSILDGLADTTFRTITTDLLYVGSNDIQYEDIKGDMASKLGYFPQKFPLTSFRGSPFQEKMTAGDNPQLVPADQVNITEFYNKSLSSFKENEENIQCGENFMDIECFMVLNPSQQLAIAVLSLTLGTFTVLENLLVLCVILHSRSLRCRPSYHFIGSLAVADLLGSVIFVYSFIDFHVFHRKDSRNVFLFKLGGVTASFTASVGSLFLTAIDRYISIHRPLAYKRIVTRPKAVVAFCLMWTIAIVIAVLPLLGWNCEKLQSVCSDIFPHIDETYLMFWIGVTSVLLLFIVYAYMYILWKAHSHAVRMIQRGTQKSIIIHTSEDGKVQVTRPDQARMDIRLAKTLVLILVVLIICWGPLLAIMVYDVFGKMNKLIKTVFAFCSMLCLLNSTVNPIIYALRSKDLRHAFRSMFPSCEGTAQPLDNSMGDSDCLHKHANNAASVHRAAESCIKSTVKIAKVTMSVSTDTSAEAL

[3] = oral, human gastrointestinal tract; cited from earlier work
[4] = LBI-1103 (Lot RAD002) reconstituted suspension (5 mg/mL Docetaxel; 5 mg/mL Rapamycin and 10 mg/mL 17-AAG), 87,000 rpm 1 hour
[5] = LBI-0728 (Lot CRX001) reconstituted suspension (2 mg/mL Ixabepilone and 5 mg/mL Rapamycin), 87,000 rpm 1 hour

Row | Compound | solubility [1, 4] | Solubility in water [2] | further results
1 | C=CCNC1=C2C[C@@H](C)C[C@H](OC)[C@H](O)[C@@H](C)/C=C(\C)[C@H](OC(N)=O)[C@@H](OC)/C=C\C=C(/C)C(=O)NC(=CC1=O)C2=O [Example 17AAG, 17-allylaminogeldanamycin] | 108 µg/mL | – | –
2 | CO[C@H]1C[C@@H]2CC[C@@H](C)[C@@](O)(O2)C(=O)C(=O)N2CCCC[C@H]2C(=O)O[C@H]([C@H](C)C[C@@H]2CC[C@@H](O)[C@H](OC)C2)CC(=O)[C@H](C)/C=C(\C)[C@@H](O)[C@@H](OC)C(=O)[C@H](C)C[C@H](C)/C=C/C=C/C=C/1C [Rapamycin] | 19 µg/mL | insoluble in water | solubility [1, 5]: 22 µg/mL
3 | CCCCCCC(C)(C)c1cc(O)c2c(c1)OC(C)(C)C1CCC(=O)CC21 (racemic) [Nabilone, (±)-trans-3-(1,1-dimethylheptyl)-6,6a,7,8,10,10a-hexahydro-1-hydroxy-6-6-dimethyl-9H-dibenzo[b,d]pyran-9-one] | – | – | Solubility in water ([2]; pH values ranging from 1.2 to 7.0): less than 0.5 mg/L; Ki (human CB2 receptors): 1.8 nM; Ki (human CB1 receptors): 2.2 nM; Absorption when administered orally [3]: completely absorbed
4 | C/C(=C\c1csc(C)n1)[C@@H]1C[C@@H]2O[C@]2(C)CCC[C@H](C)[C@H](O)[C@@H](C)C(=O)C(C)(C)[C@@H](O)CC(=O)N1 [Ixabepilone] | – | about 3.5 mg/L | solubility [1, 5]: 407 µg/mL
5 | CO[C@H]1C[C@@H]2CC[C@@H](C)[C@@](O)(O2)C(=O)C(=O)N2CCCC[C@H]2C(=O)O[C@H]([C@H](C)C[C@@H]2CC[C@@H](OCCO)[C@H](OC)C2)CC(=O)[C@H](C)/C=C(\C)[C@@H](O)[C@@H](OC)C(=O)[C@H](C)C[C@H](C)/C=C/C=C/C=C/1C [Everolimus, 40-O-(2-Hydroxy)ethyl rapamycin] | – | – | solubility ([1]; LBI-0609 (Lot CEP002) reconstituted suspension (X mg/mL Everolimus and 5 mg/mL Paclitaxel), 87,000 rpm 1 hour): 14 µg/mL (≈ 14.6 µM)
6 | CC(=O)O[C@H]1C(=O)[C@@]2(C)[C@H]([C@H](OC(=O)c3ccccc3)[C@]3(O)C[C@H](OC(=O)[C@H](O)[C@@H](NC(=O)c4ccccc4)c4ccccc4)C(C)=C1C3(C)C)[C@]1(OC(C)=O)CO[C@@H]1C[C@@H]2O [Paclitaxel] | – | about 0.4 mg/L | Drug Solubility in Supernatant ([1]; LBI-0609 (Lot CEP002) reconstituted suspension (Everolimus and 5 mg/mL Paclitaxel), 87,000 rpm 1 hour): 82 µg/mL
7 | CO[C@H]1C(=O)[C@]2(C)[C@@H](OC)C[C@H]3OC[C@@]3(OC(C)=O)[C@H]2[C@H](OC(=O)c2ccccc2)[C@]2(O)C[C@H](OC(=O)[C@H](O)[C@@H](NC(=O)OC(C)(C)C)c3ccccc3)C(C)=C1C2(C)C [cabazitaxel] | – | about 8 mg/L | –
8 | CC(=O)O[C@@]12CO[C@@H]1C[C@H](O)[C@@]1(C)C(=O)[C@H](O)C3=C(C)[C@@H](OC(=O)[C@H](O)[C@@H](NC(=O)OC(C)(C)C)c4ccccc4)C[C@@](O)([C@@H](OC(=O)c4ccccc4)[C@H]21)C3(C)C [Docetaxel] | 114 µg/mL | about 14 mg/L | –
